From patent US11970494B2, “6-heteroaryloxy benzimidazoles and azabenzimidazoles as JAK2 inhibitors” (Ajax Therapeutics, Inc., priority 2021, dated 2024) come the findings set out here.

Molecules are shown by their SMILES. Where only a bound is given, the exact number is not on record here.

Series [1] concerns the target T1, JAK3 (Homo sapiens, UniProt P52333).
T1 construct: made in house; host or cells: T7 phage in BL21-derived E. coli or HEK-293 cells
T1 sequence (P52333 1-1124): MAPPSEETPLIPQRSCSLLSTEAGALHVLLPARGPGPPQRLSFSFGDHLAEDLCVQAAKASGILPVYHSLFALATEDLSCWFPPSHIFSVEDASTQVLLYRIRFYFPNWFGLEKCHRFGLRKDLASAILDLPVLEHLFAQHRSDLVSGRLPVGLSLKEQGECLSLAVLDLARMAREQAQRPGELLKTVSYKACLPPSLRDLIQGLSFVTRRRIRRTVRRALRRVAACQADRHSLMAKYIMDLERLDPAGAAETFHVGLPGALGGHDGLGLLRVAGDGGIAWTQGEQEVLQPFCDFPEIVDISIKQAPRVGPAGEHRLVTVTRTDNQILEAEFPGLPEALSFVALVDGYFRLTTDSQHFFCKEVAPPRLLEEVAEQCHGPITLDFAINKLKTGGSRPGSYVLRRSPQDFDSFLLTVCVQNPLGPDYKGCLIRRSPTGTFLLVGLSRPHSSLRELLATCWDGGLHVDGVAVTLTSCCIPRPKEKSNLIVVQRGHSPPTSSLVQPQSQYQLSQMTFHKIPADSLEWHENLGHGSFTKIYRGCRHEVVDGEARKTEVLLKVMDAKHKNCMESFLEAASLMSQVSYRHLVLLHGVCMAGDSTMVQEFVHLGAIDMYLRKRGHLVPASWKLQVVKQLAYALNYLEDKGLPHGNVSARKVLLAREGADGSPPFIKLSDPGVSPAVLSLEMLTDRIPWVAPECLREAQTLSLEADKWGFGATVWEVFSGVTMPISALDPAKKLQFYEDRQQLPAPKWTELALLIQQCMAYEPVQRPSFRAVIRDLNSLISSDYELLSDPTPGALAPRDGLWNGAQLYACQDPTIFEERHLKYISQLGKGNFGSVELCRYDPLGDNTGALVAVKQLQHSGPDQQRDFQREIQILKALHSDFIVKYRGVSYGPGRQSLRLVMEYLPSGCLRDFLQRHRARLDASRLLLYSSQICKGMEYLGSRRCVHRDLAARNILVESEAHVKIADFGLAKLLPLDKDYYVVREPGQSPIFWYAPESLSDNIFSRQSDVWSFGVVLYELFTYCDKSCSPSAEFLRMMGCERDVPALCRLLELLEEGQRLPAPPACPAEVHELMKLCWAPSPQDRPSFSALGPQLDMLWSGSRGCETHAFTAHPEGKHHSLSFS
Put plainly: JAK Family Selectivity Assay: JAK3 vs JAK2 binding affinity. Particulars: Kd JAK3 over Kd JAK2. As to the method:
(§1) Provided compounds are evaluated for selectivity by comparing their JAK2 binding affinity (Kd) in the above JAK2 Binding Assay with their binding affinity (Kd) for one or more other kinases. Binding affinity for other kinases is determined as follows: Kinase-tagged T7 phage strains are prepared in an E. coli host derived from the BL21 strain. E. coli are grown to log-phase and infected with T7 phage and incubated with shaking at 32° C. until lysis. The lysates are centrifuged and filtered to remove cell debris. The remaining kinases are produced in HEK-293 cells and subsequently tagged with DNA for qPCR detection. Streptavidin-coated magnetic beads are treated with biotinylated small molecule ligands for 30 minutes at room temperature to generate affinity resins for kinase assays. The liganded beads are blocked with excess biotin and washed with blocking buffer (SeaBlock (Pierce), 1% BSA, 0.05% Tween 20, 1 mM DTT) to remove unbound ligand and to reduce non-specific binding. Binding reactions are assembled by combining kinases, liganded affinity beads, and test compounds in 1× binding buffer (20% SeaBlock, 0.17×PBS, 0.05% Tween 20, 6 mM DTT). Test compounds are prepared as 111× stocks in 100% DMSO. Kds are determined using an 11-point 3-fold compound dilution series with three DMSO control points. All compounds for Kd measurements are distributed by acoustic transfer (non-contact dispensing) in 100% DMSO. The compounds are then diluted directly into the assays such that the final concentration of DMSO is 0.9%. All reactions are performed in polypropylene 384-well plate. Each has a final volume of 0.02 ml. The assay plates are incubated at room temperature with shaking for 1 hour and the affinity beads are washed with wash buffer (1×PBS, 0.05% Tween 20). The beads are then re-suspended in elution buffer (1× PBS, 0.05% Tween 20, 0.5 μM non-biotinylated affinity ligand) and incubated at room temperature with shaking for 30 minutes. The kinase concentration in the eluates is measured by qPCR. […] In some embodiments, provided compounds may be JAK2-selective over one or more of the following kinases: JAK1, JAK3, and Tyk2.

Series [2] addresses T2, Tyk2 (Homo sapiens, UniProt P29597).
T2 construct: made in house; host or cells: T7 phage in BL21-derived E. coli or HEK-293 cells
The series can be described thus: JAK Family Selectivity Assay: Tyk2 vs JAK2 binding affinity. Particulars: Kd TYK2 over Kd JAK2. As to the method: as §1

Series [3] in a line: Hepatocyte Stability Assay, human hepatocytes. Particulars: cryopreserved hepatocytes, read-out: Human Heps CLint. The class given is in vitro ADME. As to the method:
10 mM stock solutions of test compound and positive control are prepared in DMSO. Stock solutions are diluted to 100 μM by combining 198 μL of 50% acetonitrile/50% water and 2 μL of 10 mM stock solution. Verapamil is used as positive control in the assay. Vials of cryopreserved hepatocytes are thawed in a 37° C. water bath with gently shaking. The contents are poured into the 50 mL thawing medium conical tube. Vials are centrifuged at 100 g for 10 minutes at room temperature. Thawing medium is aspirated and hepatocytes are re-suspended with serum-free incubation medium to yield ˜1.5×10^6 cells/mL. Cell viability and density are counted using a Trypan Blue exclusion, and then cells are diluted with serum-free incubation medium to a working cell density of 0.5×10^6 viable cells/mL. A portion of the hepatocytes at 0.5×10^6 viable cells/mL are boiled for 5 min prior to adding to the plate as negative control to eliminate the enzymatic activity so that little or no substrate turnover should be observed. Aliquots of 198 μL hepatocytes are dispensed into each well of a 96-well non-coated plate. The plate is placed in the incubator for approximately 10 minutes. Aliquots of 2 μL of the 100 μM test compound and 2 μL positive control are added into respective wells of a non-coated 96-well plate to start the reaction. The final concentration of test compound is 1 μM. This assay is performed in duplicate. The plate is incubated in the incubator for the designed time points. 25 μL of contents are transferred and mixed with 6 volumes (150 μL) of cold acetonitrile with internal standard (100 nM alprazolam, 200 nM labetalol, 200 nM caffeine and 200 nM diclofenac) to terminate the reaction at time points of 0, 15, 30, 60, 90 and 120 minutes. Samples are centrifuged for 25 minutes at 3,220 g and aliquots of 150 μL of the supernatants are used for LC-MS/MS analysis.

T2 sequence (P29597 whole entry): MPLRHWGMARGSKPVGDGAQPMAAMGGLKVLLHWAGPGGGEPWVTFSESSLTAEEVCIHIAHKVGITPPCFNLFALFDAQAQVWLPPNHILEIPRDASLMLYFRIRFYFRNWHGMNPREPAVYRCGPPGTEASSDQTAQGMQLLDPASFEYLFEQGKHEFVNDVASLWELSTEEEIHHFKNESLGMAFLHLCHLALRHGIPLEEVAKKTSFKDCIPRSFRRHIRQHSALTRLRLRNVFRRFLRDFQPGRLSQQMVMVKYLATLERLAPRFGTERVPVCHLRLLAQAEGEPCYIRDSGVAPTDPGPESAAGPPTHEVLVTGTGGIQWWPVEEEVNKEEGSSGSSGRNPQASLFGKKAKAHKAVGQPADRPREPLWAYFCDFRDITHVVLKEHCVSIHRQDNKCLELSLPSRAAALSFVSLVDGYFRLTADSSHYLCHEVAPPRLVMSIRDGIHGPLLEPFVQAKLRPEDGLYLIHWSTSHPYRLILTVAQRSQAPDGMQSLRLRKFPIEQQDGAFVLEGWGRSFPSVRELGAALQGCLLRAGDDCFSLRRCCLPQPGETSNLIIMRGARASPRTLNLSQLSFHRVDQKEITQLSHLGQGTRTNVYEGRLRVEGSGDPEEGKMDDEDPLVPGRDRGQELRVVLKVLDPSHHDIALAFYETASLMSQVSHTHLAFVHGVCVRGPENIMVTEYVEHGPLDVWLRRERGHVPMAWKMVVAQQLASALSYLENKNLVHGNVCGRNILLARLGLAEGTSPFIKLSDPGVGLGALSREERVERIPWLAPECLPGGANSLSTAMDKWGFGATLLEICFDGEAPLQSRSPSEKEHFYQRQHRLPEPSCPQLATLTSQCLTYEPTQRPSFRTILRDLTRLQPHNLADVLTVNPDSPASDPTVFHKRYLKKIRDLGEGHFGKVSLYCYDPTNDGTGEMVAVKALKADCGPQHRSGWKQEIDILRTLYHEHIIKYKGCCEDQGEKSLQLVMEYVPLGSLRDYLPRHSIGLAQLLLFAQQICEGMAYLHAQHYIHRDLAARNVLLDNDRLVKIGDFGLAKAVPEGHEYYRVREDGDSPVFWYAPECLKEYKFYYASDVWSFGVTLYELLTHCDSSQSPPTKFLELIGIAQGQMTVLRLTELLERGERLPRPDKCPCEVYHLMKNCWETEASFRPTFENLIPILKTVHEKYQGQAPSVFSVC

Consider `COC(=O)Nc1cc(Oc2cnc3nc(Nc4cc(C(F)(F)F)cn(C)c4=O)n(C)c3c2C#N)ccn1` [Example I-3, Methyl (4-((7-cyano-1-methyl-2-((1-methyl-2-oxo-5-(trifluoromethyl)-1,2-dihydropyridin-3-yl)amino)-1H-imidazo[4,5-b]pyridin-6-yl)oxy)pyridin-2-yl)carbamate], for which the “JAK3/JAK2 Kd/Kd ratio” value in series [1] is listed as “A (Kd/Kd ratio ≥1000)”. For the same compound, the “TYK2/JAK2 Kd/Kd ratio” value in series [2] was “C (Kd/Kd ratio <300 and ≥100)”. Besides, the CLint scaled at 1 μM in series [3] was at most 6 mL/min/kg.

In the case of `CN(C)C(=O)Nc1cc(Oc2cnc3nc(Nc4cc(C(F)(F)F)cn(C)c4=O)n(C)c3c2C#N)ccn1` [Example I-4, 3-(4-((7-cyano-1-methyl-2-((1-methyl-2-oxo-5-(trifluoromethyl)-1,2-dihydropyridin-3-yl)amino)-1H-imidazo[4,5-b]pyridin-6-yl)oxy)pyridin-2-yl)-1,1-dimethylurea], in series [1], the “JAK3/JAK2 Kd/Kd ratio” value is reported as “A (Kd/Kd ratio ≥1000)”. In addition, the “TYK2/JAK2 Kd/Kd ratio” value in series [2] was “C (Kd/Kd ratio <300 and ≥100)”. Moreover, the CLint scaled at 1 μM in series [3] is at most 6 mL/min/kg.

For the compound `Cn1cc(C(F)(F)F)cc(Nc2nc3ncc(Oc4ccnc(NC(=O)N5CCC5)c4)c(C#N)c3n2C)c1=O` [Example I-7, N-(4-((7-cyano-1-methyl-2-((1-methyl-2-oxo-5-(trifluoromethyl)-1,2-dihydropyridin-3-yl)amino)-1H-imidazo[4,5-b]pyridin-6-yl)oxy)pyridin-2-yl)azetidine-1-carboxamide], the “JAK3/JAK2 Kd/Kd ratio” value in series [1] was “A (Kd/Kd ratio ≥1000)”. Further, the “TYK2/JAK2 Kd/Kd ratio” value in series [2] is “D (Kd/Kd ratio <100)”. Further, the CLint scaled at 1 μM in series [3] was at most 6 mL/min/kg.

Regarding `CO[C@H]1CCN(C(=O)Nc2cc(Oc3cnc4nc(Nc5cc(C(F)(F)F)cn(C)c5=O)n(C)c4c3C#N)ccn2)C1` [Example I-14, (S)-N-(4-((7-cyano-1-methyl-2-((1-methyl-2-oxo-5-(trifluoromethyl)-1,2-dihydropyridin-3-yl)amino)-1H-imidazo[4,5-b]pyridin-6-yl)oxy)pyridin-2-yl)-3-methoxypyrrolidine-1-carboxamide], the “JAK3/JAK2 Kd/Kd ratio” value in series [1] is recorded as “A (Kd/Kd ratio ≥1000)”. Moreover, the “TYK2/JAK2 Kd/Kd ratio” value in series [2] was “C (Kd/Kd ratio <300 and ≥100)”. For the same compound, in series [3], the CLint scaled at 1 μM is at most 6 mL/min/kg.

Regarding `Cn1cc(C(F)(F)F)cc(Nc2nc3ncc(Oc4ccnc(NC(=O)OCCN5CCOCC5)c4)c(C#N)c3n2C)c1=O` [Example I-15, 2-Morpholinoethyl(4-((7-cyano-1-methyl-2-((1-methyl-2-oxo-5-(trifluoromethyl)-1,2-dihydropyridin-3-yl)amino)-1H-imidazo[4,5-b]pyridin-6-yl)oxy)pyridin-2-yl)carbamate], in series [1], the “JAK3/JAK2 Kd/Kd ratio” value is “A (Kd/Kd ratio ≥1000)”. Moreover, the “TYK2/JAK2 Kd/Kd ratio” value in series [2] was “B (Kd/Kd ratio <1000 and ≥300)”. Moreover, the CLint scaled at 1 μM in series [3] is at most 6 mL/min/kg.

Regarding `COC1CN(C(=O)Nc2cc(Oc3cnc4nc(Nc5cc6n(n5)CCCC6(F)F)n(C)c4c3C#N)ccn2)C1` [Example I-26, N-(4-((7-cyano-2-((4,4-difluoro-4,5,6,7-tetrahydropyrazolo[1,5-a]pyridin-2-yl)amino)-1-methyl-1H-imidazo[4,5-b]pyridin-6-yl)oxy)pyridin-2-yl)-3-methoxyazetidine-1-carboxamide], the CLint scaled at 1 μM in series [3] fell in the range of 6 to 12 mL/min/kg.

As to `Cn1c(Nc2cc3n(n2)CCOC3(C)C)nc2ncc(Oc3ccnc(NC(=O)O[C@@H]4CCOC4)c3)c(C#N)c21` [Example I-48, (R)-Tetrahydrofuran-3-yl(4-((7-cyano-2-((4,4-dimethyl-6,7-dihydro-4H-pyrazolo[5,1-c][1,4]oxazin-2-yl)amino)-1-methyl-1H-imidazo[4,5-b]pyridin-6-yl)oxy)pyridin-2-yl)carbamate], in series [3], the CLint scaled at 1 μM is 6 to 12 mL/min/kg.

For `CN(C)C(=O)Nc1cc(Oc2cnc3nc(Nc4cc5n(n4)CCC54CCC4)n(C)c3c2C#N)ccn1` [Example I-56, 3-(4-((7-cyano-2-((5′,6′-dihydrospiro[cyclobutane-1,4′-pyrrolo[1,2-b]pyrazol]-2′-yl)amino)-1-methyl-1H-imidazo[4,5-b]pyridin-6-yl)oxy)pyridin-2-yl)-1,1-dimethylurea], in series [3], the CLint scaled at 1 μM was at most 6 mL/min/kg.

`COC(=O)Nc1cc(Oc2cnc3nc(Nc4cc5n(n4)CCC54CCC4)n(C)c3c2C#N)ccn1` [Example I-57, methyl(4-((7-cyano-2-((5′,6′-dihydrospiro[cyclobutane-1,4′-pyrrolo[1,2-b]pyrazol]-2′-yl)amino)-1-methyl-1H-imidazo[4,5-b]pyridin-6-yl)oxy)pyridin-2-yl)carbamate]: the CLint scaled at 1 μM in series [3] is 6 to 12 mL/min/kg.

`CC(=O)Nc1cc(Oc2cnc3nc(Nc4cc5n(n4)CCCC54CC4)n(C)c3c2C#N)ccn1` [Example I-114, N-(4-((7-cyano-2-((6′,7′-dihydro-5′H-spiro[cyclopropane-1,4′-pyrazolo[1,5-a]pyridin]-2′-yl)amino)-1-methyl-1H-imidazo[4,5-b]pyridin-6-yl)oxy)pyridin-2-yl)acetamide]: in series [3], the CLint scaled at 1 μM is 6 to 12 mL/min/kg.

As for `CC(=O)Nc1cc(Oc2cnc3nc(Nc4cc5n(n4)CCOCC5(C)C)n(C)c3c2C#N)ccn1` [Example I-118, N-(4-((7-cyano-2-((4,4-dimethyl-4,5,7,8-tetrahydropyrazolo[1,5-d][1,4]oxazepin-2-yl)amino)-1-methyl-1H-imidazo[4,5-b]pyridin-6-yl)oxy)pyridin-2-yl)acetamide], the CLint scaled at 1 μM in series [3] was at most 6 mL/min/kg.
